{"source": "patent US20080124407A1", "about": "“INHIBITING CYP3A4 INDUCTION” (UNIVERSITY OF WASHINGTON, priority 2006, published 2008)", "key": {"SXR": {"molecular_target": "T1, SXR (Homo sapiens, UniProt O75469)", "T1 sequence (O75469 1-434)": "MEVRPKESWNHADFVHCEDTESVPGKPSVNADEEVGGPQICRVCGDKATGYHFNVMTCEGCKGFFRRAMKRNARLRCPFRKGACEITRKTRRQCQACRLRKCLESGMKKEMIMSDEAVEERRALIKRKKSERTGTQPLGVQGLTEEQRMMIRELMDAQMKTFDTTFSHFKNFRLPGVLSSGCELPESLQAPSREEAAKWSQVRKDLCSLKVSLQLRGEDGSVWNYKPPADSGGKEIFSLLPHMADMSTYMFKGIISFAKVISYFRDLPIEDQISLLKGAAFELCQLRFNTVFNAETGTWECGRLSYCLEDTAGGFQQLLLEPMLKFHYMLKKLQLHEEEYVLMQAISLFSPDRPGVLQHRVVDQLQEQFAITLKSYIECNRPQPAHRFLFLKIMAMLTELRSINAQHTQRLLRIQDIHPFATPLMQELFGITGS", "assay": "Transient transfection luciferase assay, full-length SXR with CYP3A4-luc reporter in HepG2 cells", "conditions": "for inhibitory activity toward SXR function (SFN analogs): 24 hrs"}, "UGT1A1": {"test_system": "UGT1A1", "assay": "UGT1A1 gene expression by QRT-PCR", "type": "cell-based, human"}, "PPARα": {"molecular_target": "PPARα (Homo sapiens, UniProt Q07869)", "sequence (Q07869 239-466 limits assumed, species assumed)": "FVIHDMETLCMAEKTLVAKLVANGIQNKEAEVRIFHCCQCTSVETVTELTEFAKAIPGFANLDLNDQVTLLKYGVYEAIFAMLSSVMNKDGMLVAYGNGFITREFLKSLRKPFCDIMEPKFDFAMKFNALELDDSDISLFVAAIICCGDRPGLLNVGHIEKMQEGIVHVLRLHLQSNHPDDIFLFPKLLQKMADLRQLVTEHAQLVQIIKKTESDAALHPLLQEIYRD", "conditions": "10 μM SFN"}, "[1]": {"conditions": "human subjects who ingest SFN in a broccoli soup; cited from earlier work"}, "[2]": {"molecular_target": "human SXR ligand binding domain (Homo sapiens, UniProt O75469)", "assay": "biochemical"}, "SXR / PBP interaction": {"molecular_target": "SXR / PBP interaction (Homo sapiens, UniProt O75469)", "conditions": "10 μM RIF"}, "SXR / SRC-1 interaction": {"molecular_target": "SXR / SRC-1 interaction (Homo sapiens, UniProt O75469)", "conditions": "10 μM RIF"}, "CYP3A4 [3]": {"test_system": "CYP3A4", "conditions": "for average CYP3A4 mRNA levels relative to the solvent control: 48 hrs"}, "PPARγ": {"molecular_target": "PPARγ (Homo sapiens, UniProt P37231)", "sequence (P37231 238-503 limits assumed, species assumed)": "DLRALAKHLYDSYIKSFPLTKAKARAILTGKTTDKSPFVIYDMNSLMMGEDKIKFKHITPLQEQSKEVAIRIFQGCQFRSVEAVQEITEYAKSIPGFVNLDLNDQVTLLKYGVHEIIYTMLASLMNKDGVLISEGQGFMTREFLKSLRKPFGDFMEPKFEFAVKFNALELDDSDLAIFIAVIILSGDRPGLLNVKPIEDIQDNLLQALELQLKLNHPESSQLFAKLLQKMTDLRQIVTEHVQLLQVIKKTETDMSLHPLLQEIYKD", "conditions": "10 μM SFN"}, "CAR": {"molecular_target": "CAR (Homo sapiens, UniProt Q14994)", "sequence (Q14994 109-352 limits assumed)": "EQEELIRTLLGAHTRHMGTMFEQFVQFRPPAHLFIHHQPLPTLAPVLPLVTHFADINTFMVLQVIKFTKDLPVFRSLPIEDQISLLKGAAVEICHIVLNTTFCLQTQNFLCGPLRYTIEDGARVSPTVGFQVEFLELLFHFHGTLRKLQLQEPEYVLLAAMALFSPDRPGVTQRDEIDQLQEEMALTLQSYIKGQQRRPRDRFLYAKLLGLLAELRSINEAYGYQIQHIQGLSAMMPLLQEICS", "conditions": "10 μM SFN"}, "rat PXR": {"molecular_target": "rat PXR (Rattus norvegicus, UniProt Q9R1A7)", "sequence (Q9R1A7 143-430 limits assumed)": "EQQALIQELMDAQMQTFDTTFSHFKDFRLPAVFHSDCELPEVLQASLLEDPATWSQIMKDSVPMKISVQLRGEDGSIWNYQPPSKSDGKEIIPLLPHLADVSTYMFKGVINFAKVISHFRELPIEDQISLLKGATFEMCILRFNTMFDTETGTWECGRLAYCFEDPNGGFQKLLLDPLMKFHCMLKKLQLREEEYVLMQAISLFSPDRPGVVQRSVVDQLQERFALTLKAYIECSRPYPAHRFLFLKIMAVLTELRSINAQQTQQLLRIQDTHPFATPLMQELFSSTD", "conditions": "10 μM SFN"}, "human hepatocytes": {"test_system": "human hepatocytes", "conditions": "pretreatment with 50 μM SFN; cited from earlier work"}, "CYP3A4 [4]": {"molecular_target": "CYP3A4 (Homo sapiens, UniProt P08684)", "sequence (P08684 whole entry)": "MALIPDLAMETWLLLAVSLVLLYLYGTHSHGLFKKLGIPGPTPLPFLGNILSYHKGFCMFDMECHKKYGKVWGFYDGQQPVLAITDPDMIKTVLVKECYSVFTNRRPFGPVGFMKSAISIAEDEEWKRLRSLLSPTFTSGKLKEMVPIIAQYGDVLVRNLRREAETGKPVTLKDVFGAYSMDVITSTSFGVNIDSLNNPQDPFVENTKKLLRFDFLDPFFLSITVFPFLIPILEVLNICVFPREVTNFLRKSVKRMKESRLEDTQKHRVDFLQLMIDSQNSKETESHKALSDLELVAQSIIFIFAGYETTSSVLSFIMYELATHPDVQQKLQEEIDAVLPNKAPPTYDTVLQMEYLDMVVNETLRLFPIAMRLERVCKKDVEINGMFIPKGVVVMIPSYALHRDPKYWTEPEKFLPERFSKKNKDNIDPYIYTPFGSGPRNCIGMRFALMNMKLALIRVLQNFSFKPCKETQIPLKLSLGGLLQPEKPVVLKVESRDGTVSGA", "conditions": "concentrations as high as 50 μM; cited from earlier work"}, "MDR1 (ABCB1)": {"test_system": "MDR1 (ABCB1)", "conditions": "LS180 cells"}, "CYP3A4 [5]": {"test_system": "CYP3A4", "conditions": "LS180 cells, SFN 24 hrs pre-treatment"}, "NQO1 [6]": {"test_system": "NQO1", "conditions": "human primary hepatocytes, 10 or 25 μM SFN, 48 h"}, "NQO1 [7]": {"test_system": "NQO1", "conditions": "LS180 cells, 10 or 25 μM SFN, 48 h"}, "VDR": {"molecular_target": "VDR (Homo sapiens, UniProt P11473)", "sequence (P11473 127-423 limits assumed, species assumed)": "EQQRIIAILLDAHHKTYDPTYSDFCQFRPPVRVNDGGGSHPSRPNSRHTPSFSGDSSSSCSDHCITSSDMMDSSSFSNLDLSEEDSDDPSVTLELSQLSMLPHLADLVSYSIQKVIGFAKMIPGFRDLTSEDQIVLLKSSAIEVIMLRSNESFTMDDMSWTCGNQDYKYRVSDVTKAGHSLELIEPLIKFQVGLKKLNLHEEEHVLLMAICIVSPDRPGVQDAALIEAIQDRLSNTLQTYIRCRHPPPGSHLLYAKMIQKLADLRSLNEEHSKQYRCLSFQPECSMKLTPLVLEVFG", "conditions": "10 μM SFN"}, "CYP3A4 [8]": {"test_system": "CYP3A4", "conditions": "hepatocytes"}, "[9]": {"test_system": "NQO1 and Glutamate Cysteine Ligase (both GCLM and GCLC)", "conditions": "10 or 50 μM SFN, 48 hrs"}, "mouse PXR": {"molecular_target": "mouse PXR (Mus musculus, UniProt O54915)", "sequence (O54915 143-430 limits assumed)": "as the sequence (Q9R1A7 143-430 limits assumed) above, with D36G, V42F, S61R, V68L, H118Y, E121D, R191H, E192K, T272S counted along it", "conditions": "10 μM SFN"}, "GAL4-SXR": {"molecular_target": "GAL4-SXR (Homo sapiens, UniProt O75469)", "assay": "cell-based"}, "rat CYP3A": {"test_system": "rat CYP3A", "conditions": "in vivo; cited from earlier work"}, "VP16-SXR [10]": {"molecular_target": "T2, VP16-SXR (human, UniProt O75469 1-434)", "T2 construct": "also called steroid and xenobiotic receptor; pregnane X receptor", "T2 sequence": "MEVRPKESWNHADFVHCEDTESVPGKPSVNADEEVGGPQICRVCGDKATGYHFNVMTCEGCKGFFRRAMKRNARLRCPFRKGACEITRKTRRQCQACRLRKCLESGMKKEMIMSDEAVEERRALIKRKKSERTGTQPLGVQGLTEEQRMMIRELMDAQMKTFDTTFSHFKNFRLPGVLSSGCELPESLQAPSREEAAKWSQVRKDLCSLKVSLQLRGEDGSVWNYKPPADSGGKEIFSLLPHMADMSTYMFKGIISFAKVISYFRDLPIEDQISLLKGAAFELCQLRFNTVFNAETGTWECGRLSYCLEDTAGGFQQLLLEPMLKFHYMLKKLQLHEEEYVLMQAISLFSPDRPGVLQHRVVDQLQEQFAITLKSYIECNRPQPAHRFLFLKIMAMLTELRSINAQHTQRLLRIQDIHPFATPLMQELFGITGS", "assay": "mammalian two-hybrid in HepG2 cells (GAL4 reporter, VP16-SXR, GAL-TIF2), with rifampicin"}, "VP16-SXR [11]": {"molecular_target": "T2, VP16-SXR", "assay": "mammalian two-hybrid in HepG2 cells (GAL4 reporter, VP16-SXR, GAL-ACTR), with rifampicin"}}, "note": "Read-outs that look alike come from different tables or passages of the source."}
{"molecule": "CS(=O)(=O)CCCN=C=S", "note": "[Cheirolin]", "values": [{"measurement": "inhibitory effect toward SXR function at low concentration", "setting": "SXR; 10 μM RIF, low concentration, compared with SFN", "result": "less potent at low concentration"}]}
{"molecule": "C[S+]([O-])CCCCC#N", "note": "(stereo not drawn) [SFN-nitrile, reference compound]", "values": [{"measurement": "inhibitory activity toward SXR function (SFN analogs)", "setting": "SXR; 10 μM RIF, compared with SFN", "result": "no inhibitory activity"}]}
{"molecule": "C[S+]([O-])CCCCN=C=S", "note": "(stereo not drawn) [SFN, 4-methylsulfinylbutyl isothiocyanate]", "values": [{"measurement": "effect on UGT1A1 gene expression", "setting": "UGT1A1", "result": "induced UGT1A1 gene expression"}, {"measurement": "activity as activating ligand of PPARα", "setting": "PPARα", "result": "nor did it serve as an activating ligand"}, {"measurement": "inhibition of ligand activation of PPARα", "setting": "PPARα", "result": "did not inhibit ligand activation"}, {"measurement": "peak plasma concentration of unconjugated SFN", "setting": "[1]", "result": "4 to 5", "unit": "µM"}, {"measurement": "Ki", "setting": "[2]", "result": 16, "unit": "µM"}, {"measurement": "inhibition of RIF induced PBP recruitment to SXR", "setting": "SXR / PBP interaction", "result": "inhibited RIF induced SRC-1 and PBP recruitment to SXR in a dose dependent manner"}, {"measurement": "inhibition of RIF induced SRC-1 recruitment to SXR", "setting": "SXR / SRC-1 interaction", "result": "inhibited RIF induced SRC-1 and PBP recruitment to SXR in a dose dependent manner"}, {"measurement": "average CYP3A4 mRNA levels relative to the solvent control", "setting": "CYP3A4 [3]; 10 μM SFN", "result": 69, "unit": "%"}, {"measurement": "average CYP3A4 mRNA levels relative to the solvent control", "setting": "CYP3A4 [3]; 25 μM SFN", "result": 20, "unit": "%"}, {"measurement": "average CYP3A4 mRNA levels relative to the solvent control", "setting": "CYP3A4 [3]; 50 μM SFN", "result": 13, "unit": "%"}, {"measurement": "CYP3A4 responses in single individuals, lowest, of the solvent control", "setting": "CYP3A4 [3]; single individuals", "result": 2, "unit": "%"}, {"measurement": "activity as activating ligand of PPARγ", "setting": "PPARγ", "result": "nor did it serve as an activating ligand"}, {"measurement": "inhibition of ligand activation of PPARγ", "setting": "PPARγ", "result": "did not inhibit ligand activation"}, {"measurement": "activity as activating ligand of CAR", "setting": "CAR", "result": "nor did it serve as an activating ligand"}, {"measurement": "inhibition of ligand activation of CAR", "setting": "CAR", "result": "did not inhibit ligand activation"}, {"measurement": "IC50", "setting": "SXR", "result": "~12", "unit": "µM"}, {"measurement": "inhibition of RIF and RU486 induced reporter activities", "setting": "SXR; 10 μM RIF or RU486, dose-dependent", "result": "significantly inhibited"}, {"measurement": "inhibition of RIF induced SXR reporter activity", "setting": "SXR; 25 μM SFN, 10 μM RIF", "result": "blocked most of the RIF induced SXR reporter activity"}, {"measurement": "concentration as low as which SXR reporter activity was inhibited", "setting": "SXR; HepG2, RIF or RU486 induced", "result": 1000, "unit": "nM"}, {"measurement": "activity as activating ligand of rPXR", "setting": "rat PXR", "result": "nor did it serve as an activating ligand"}, {"measurement": "inhibition of ligand activation of rPXR", "setting": "rat PXR", "result": "did not inhibit ligand activation"}, {"measurement": "decrease in DNA adduction of aflatoxin B1", "setting": "human hepatocytes", "result": "> 90", "unit": "%"}, {"measurement": "direct inhibition of CYP3A4 catalytic activity", "setting": "CYP3A4 [4]", "result": "not a direct inhibitor"}, {"measurement": "inhibition of RIF or RU486 induced expression of MDR1 (ABCB1)", "setting": "MDR1 (ABCB1)", "result": "inhibited RIF or RU486 induced expression of MDR1"}, {"measurement": "reduction in RIF- and RU486-mediated induction of CYP3A4", "setting": "CYP3A4 [5]", "result": "dose-related reduction"}, {"measurement": "induction of NQO1", "setting": "NQO1 [6]", "result": "significantly induced"}, {"measurement": "induction of NQO1", "setting": "NQO1 [7]", "result": "significantly induced"}, {"measurement": "activity as activating ligand of VDR", "setting": "VDR", "result": "nor did it serve as an activating ligand"}, {"measurement": "inhibition of ligand activation of VDR", "setting": "VDR", "result": "did not inhibit ligand activation"}, {"measurement": "effect on basal level of CYP3A4 expression", "setting": "CYP3A4 [8]", "result": "significantly reduced the basal level"}, {"measurement": "mRNA levels of detoxification enzymes including NQO1, GCLM and GCLC", "setting": "[9]", "result": "increased mRNA levels"}, {"measurement": "activity as activating ligand of mPXR", "setting": "mouse PXR", "result": "nor did it serve as an activating ligand"}, {"measurement": "inhibition of ligand activation of mPXR", "setting": "mouse PXR", "result": "did not inhibit ligand activation"}, {"measurement": "IC50", "setting": "GAL4-SXR", "result": 14, "unit": "µM"}, {"measurement": "inhibition of rat CYP3A gene expression", "setting": "rat CYP3A", "result": "did not inhibit rat CYP3A gene expression"}]}
{"molecule": "C[S+]([O-])CCCN=C=S", "note": "(stereo not drawn) [Iberin]", "values": [{"measurement": "inhibitory activity toward SXR function (SFN analogs)", "setting": "SXR; 10 μM RIF, compared with SFN", "result": "little effect on inhibitory potency"}]}
{"molecule": "S=C=NCCc1ccccc1", "note": "[PEITC, reference compound]", "values": [{"measurement": "inhibitory activity toward SXR function (SFN analogs)", "setting": "SXR; 10 μM RIF, compared with SFN", "result": "substantial loss of the inhibitory effect"}]}
{"molecule": "CC#C[C@]1(O)CC[C@H]2[C@@H]3CCC4=CC(=O)CCC4=C3[C@@H](c3ccc(N(C)C)cc3)C[C@@]21C", "note": "[RU486, mifepristone, reference compound]", "values": [{"measurement": "effect on UGT1A1 gene expression", "setting": "UGT1A1", "result": "slightly induced"}]}
{"molecule": "GAL4 DNA-binding domain linked to the receptor interaction domains of transcriptional intermediary factor (GAL-TIF2) (other) MKLLSSIEQACDICRLKKLKCSKEKPKCAKCLKNNWECRYSPKTKRSPLTRAHLTEVESRLERLEQLFLLIFPREDLDMILKMDSLQDIKALLTGLFVQDNVNKDAVTDRLASVETDMPLTLRQHRISATSSSEESSNKGQRQLTVSQNSPVNMNPPPLSKMGSLDSKDCFGLYGEPSEGTTGQAESSCHPGEQKETNDPNLPPAVSSERADGQSRLHDSKGQTKLLQLLTTKSDQMEPSPLASSLSDTNKDSTGSLPGSGSTHGTSLKEKHKILHRLLQDSSSPVDLAKLTAEATGKDLSQESSSTAPGSEVTIKQEPVSPKKKENALLRYLLDKDDTKDIGLPEITPKLERLDSKTDPASNTKLIAMKTEKEE", "values": [{"measurement": "binding result", "setting": "VP16-SXR [10]", "result": "no binding (tested: 10 µM RIF)"}]}
{"molecule": "GAL4 DNA-binding domain linked to the receptor interaction domains of activator of thyroid and retinoic acid receptor (GAL-ACTR) (other) MKLLSSIEQACDICRLKKLKCSKEKPKCAKCLKNNWECRYSPKTKRSPLTRAHLTEVESRLERLEQLFLLIFPREDLDMILKMDSLQDIKALLTGLFVQDNVNKDAVTDRLASVETDMPLTLRQHRISATSSSEESSNKGQRQLTVSESSVEGAENQRGPLESKGHKKLLQLLTCSSDDRGHSSLTNSPLDSSCKESSVSVTSPSGVSSSTSGGVSSTSNMHGSLLQEKHRILHKLLQNGNSPAEVAKITAEATGKDTSSITSCGDGNVVKQEQLSPKKKENNALLRYLLDRDDPSDALSKELQPQVEGVDNKMSQCTSSTIPSSSQEKDPKIKTE", "values": [{"measurement": "binding result", "setting": "VP16-SXR [11]", "result": "no binding (tested: 10 µM RIF)"}]}
